Series [1] in a line: Ice recrystallization inhibition (IRI) splat assay, MLGS from DFOM images. Particulars: ice recrystallized 30 minutes at -6 °C. The method, then: In order to more clearly confirm the effect of inhibiting ice crystal growth, ice recrystallization inhibition (IRI) characteristics were analyzed. Analysis of ice recrystallization was performed by reference Mitchell, D. E., Clarkson, G., Fox, D. J., Vipond, R. A., Scott, P., & Gibson, M. I. (2017). Antifreeze Protein Mimetic Metallohelices with Potent Ice Recrystallization Inhibition Activity. Journal of the American Chemical Society, 139(29), 9835-9838 and Budke, C., Heggemann, C., Koch, M., Sewald, N., & Koop, T. (2009). Ice Recrystallization Kinetics in the Presence of Synthetic Antifreeze Glycoprotein Analogues Using the Framework of LSW Theory. The Journal of Physical Chemistry B, 113(9), 2865-2873. More specifically, a 10 μL sample was dropped from a height of 1.5 m onto a surface of a cover glass precooled to −60° C. so as to form a thin film of ice. […] During recrystallization of ice, dark-field optical microscopy (DFOM) images were taken, and ten of the largest ice crystal domains were chosen and a mean value thereof was obtained to evaluate the IRI activity. A mean largest grain size (MLGS) analysis was repeated three times.

Series [2] has as its system mouse embryonic stem cells (mESCs). The experiment in a line: mESC cell viability by CCK-8 assay and crystal violet dye. The format is cell-based. The following applies: CCK-8. The protocol:
In a 60 mm cell culture dish coated with 0.1% gelatin (Sigma), mouse ES cells were cultured in a medium DMEM (Hyclone), to which 2 mM L-glutamine (Mediatech Inc.), 1% penicillin/streptomycin (Mediatech Inc.), 15% heat-inactivated fetal bovine serum (Hyclone), 20 mM HEPES-pH 7.3 (Cellgro), 0.1 mM MEM non-essential amino acid (Cellgro), 0.1 mM 2-mercaptoethanol (Sigma) and 1000 U/mL LIF (Millipore) are added, in order to prevent differentiation.
Mouse ES cells were seeded by 8×10^4 cells per well in a 96-well plate containing the above various cryopreservation solutions. After 9 hours, CCK-8 reagent was added and fluorescence intensity was measured using an ELISA Reader (TECAN).
[…] Cells were washed with 500 μL of PBS and 500 μL of 4% PFA was added thereto for 15 minutes. The fixed cells were washed twice with 500 μL of PBS and 0.5% crystal violet solution was added thereto for 30 minutes. The stained cells were washed with tap water.

A further series relates to sperms. The experiment in a line: Sperm cryopreservation followed by in vitro fertilization and embryo culture. The following applies: sperms frozen in 3% skim milk containing 10 to 20 μM. The format is cell-based, C57BL/6J mice. The method, then: To cryopreserve sperms, a modified 18% raffinose pentahydrate/3% skim milk (Difco, Becton Dickinson) solution containing 100 mM L-glutamine or skim milk, to which a cryoprotectant according to the present invention was added, was prepared. A human tubal fluid (HTF) medium was used during the IVF process, and a potassium simplex optimized medium (PSOM) was used while 2-cell embryo was cultured to a blastocyst stage.
A sperm cryopreservation solution dispensed in 60 μL was placed in a 35 mm culture dish and covered with paraffin oil. After male mice were sacrificed with […], a tail of epididymis was removed and divided into pieces, and all fats and blood were removed while observing under a microscope before transferring to the cryopreservation solution. The culture dish was kept at 37° C. for 3 minutes and gently stirred every minute to allow sperms to disperse from the tissues. […]
Frozen sperms were thawed under various conditions, then added to IVF drops containing eggs and incubated at 37° C. […] After 24 hours from fertilization, a fertilization rate was calculated using the total number of 2-cell embryos as a percentage based on the total number of eggs.
After performing IFV, 2-cell embryos were classified into a group to be cultured in the blastocyst stage and a group to be implanted in the oviduct of ICR females. After giving birth, the number of pups was recorded. […]

Series [3] in a line: Gold nanoparticle (MPA-AuNP) colorimetric freeze/thaw assay for TH and IRI activity. The following applies: 50 μL of 0.5 mM sample in 350 μL of 300 μM MPA-AuNP, -65 °C 23 min. The protocol: Thermal hysteresis (TH) as anti-freezing activity was measured in accordance with the method described in Park, J.-I., Lee, J. H., Gwak, Y., Kim, H. J., Jin, E., & Kim, Y.-P. (2013). Frozen assembly of gold nanoparticles for rapid analysis of antifreeze protein activity. Biosensors and Bioelectronics, 41, 752-757, and ice recrystallization inhibition (IRI) activity was measured based on Mitchell, D. E., Congdon, T., Rodger, A., & Gibson, M. I. (2015). Gold Nanoparticle Aggregation as a Probe of Antifreeze (Glyco) Protein-Inspired Ice Recrystallization Inhibition and Identification of New IRI Active Macromolecules. Scientific Reports, 5(1). More specifically, when dispersing AFP in a solution in which gold nanoparticles are dispersed, and freezing the solution then thawing again, if the AFP has good conjugating force with an ice crystal surface, the dispersibility of gold nanoparticles is good to maintain an original color of the solution, whereas if it has weak conjugating force, AFP is precipitated, and when ice crystals are rapidly formed, the solution is subjected to color change.
Gold nanoparticles (Cit-AuNP) stabilized with citric acid were synthesized to prepare mercaptopropionic acid (MPA)-AuNP. 20 mL of a storage solution containing 1 mM HAuCl4·3H2O was added to 50 mL of deionized water (DI water). After the solution was stirred and heated to a boiling point, 30 mM sodium citric acid in 2 mL of deionized water was further added to the solution and heated for 20 minutes. The color of the solution changed from bright yellow to burgundy. […] An average size of MPA-capped AuNP was measured to be about 16.7 nm.
On a microwell plate, 50 μL of a solution containing 0.5 mM sample was added to 350 μL of 300 μM MPA-AuNP solution, respectively. […] To quantitatively confirm the color change before and after freezing, absorption spectra of each mixture were measured with a UH5300 spectrometer before and after freezing. The spectra were measured from 300 nm to 900 nm at a scan speed of 400 nm/min, and aggregation properties (E525/E650) of each mixture were compared. […]

SMILES strings stand for the structures. Where only a bound is given, the exact number is not on record here.

As to `CC(O)C(NC(=O)C(CC1=c2ccccc2=NC1)NC(=O)C(CC1=CN=C2C=CC=CC12)NC(=O)OCC1c2ccccc2-c2ccccc21)C(N)=O` (stereo not shown) [Fmoc-WWT], in series [1], the IRI effect result is recorded as “had IRI effects”. Besides, the “cell viability with respect to mESC” value in series [2] was “significant cell viability”. The “rate of 2-cell embryo formation” value in the series with sperms is recorded as at least 77%. Also, the “aggregation of gold particles after freezing/thawing (absorption peak shift 525 nm to 650 nm)” value in series [3] is given as “an aggregation phenomenon was exhibited”.

For the origin of these results see patent US12133523B2, “Anti-freezing composition comprising self-assembly compound” (Korea University Research and Business Foundation, priority 2019, dated 2024).
